What all share (assay): DTP human tumour cell line panel, 48 h
Experiment [1] has as its system A549.
The test system of experiment [2] is BT-549.
The subject of experiment [3] is CCRF-CEM.
Experiment [4] deals with DU-145.
The subject of experiment [5] is HCT-116.
The test system of experiment [6] is HOP-62.
In experiment [7] the test system is IGROV-1.
Experiment [8] concerns MCF7.
Experiment [9] has as its system NCI-H226.
In experiment [10] the test system is NCI-H23.
Experiment [11] relates to OVCAR-3.
For experiment [12], the system named is OVCAR-5.
The subject of experiment [13] is OVCAR-8.
In experiment [14] the test system is RPMI-8226.
Experiment [15] relates to SF-539.
In experiment [16] the test system is SK-MEL-28.
Experiment [17] has as its system SN12C.
The subject of experiment [18] is SR.
Experiment [19] relates to U-251.
Experiment [20] deals with UACC-257.

The structures appear in SMILES notation.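 Cultured in 96-well plates, cells were exposed to test compound for 48 hours across five concentrations. Abbreviation: GI50, concentration required for 50% inhibition of growth.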 Active and inactive are the calls of the source. Rule as the data show it: active = GI50 up to about 1.1 µM and inactive = higher.

For orientation: GI50 means the concentration that inhibits growth by half. On to `COC(=O)c1c(O)ccc2c1c1cc3ccccc3c(O)c1n2Cc1ccccc1Cl`, for which the GI50 was 23.5 µM (inactive) in [1]; 32.8 µM (inactive) in experiment [2]; 34.7 µM (inactive) in [3]; 31.3 µM (inactive) in experiment [4]; 13.2 µM (inactive) in [5]; 26.1 µM (inactive) in [6]. Further, the GI50 is 19.4 µM (inactive) in experiment [7]; 30.3 µM (inactive) in [8]; 31.8 µM (inactive) in experiment [9]; 18.4 µM (inactive) in [10]; 15.7 µM (inactive) in experiment [11]; 34.9 µM (inactive) in experiment [12]. The GI50 was 25.3 µM (inactive) in experiment [13]; 20.4 µM (inactive) in [14]; 17.3 µM (inactive) in experiment [15]; 14.5 µM (inactive) in [16]; 32.7 µM (inactive) in experiment [17]; 25.4 µM (inactive) in experiment [18]. For the same compound, the GI50 was 31.4 µM (inactive) in [19] and 47.5 µM (inactive) in experiment [20].

For the compound `CC(=O)NC1CONC1=O` (centres undefined), the GI50 in experiment [1], in experiment [2], in [3], in experiment [4], in experiment [5] and in experiment [6] was > 100 µM (inactive) each time. The GI50 in experiment [7], in experiment [8], in [9], in experiment [10], in [11] and in experiment [12] was > 100 µM (inactive) in each case. Moreover, the GI50 in [13], in [14], in [15], in [16], in experiment [17] and in experiment [18] was > 100 µM (inactive) throughout. Besides, the GI50 in experiment [19] and in [20] was > 100 µM (inactive) throughout.

Turning to `Cc1cc(S(=O)(=O)Nc2nc(N)n[nH]2)c(SCC(=O)O)cc1Cl`, the GI50 in experiment [1], in experiment [2], in [3], in experiment [4], in experiment [5] and in experiment [6] was > 10 µM (inactive) in each case. In addition, the GI50 in experiment [7], in experiment [8], in experiment [9], in [10], in experiment [11] and in experiment [12] was > 10 µM (inactive) each time. Besides, the GI50 in experiment [13], in experiment [14], in experiment [15], in experiment [16], in experiment [17] and in experiment [18] was > 10 µM (inactive) in each case. Besides, the GI50 in experiment [19] and in experiment [20] was > 10 µM (inactive) throughout.

For `COc1cc(C2c3cc4c(cc3OC3(OC)COC(=O)C23)OCO4)cc(OC)c1OC` (centres undefined), the 50% growth inhibitory concentration (GI50) in [1] is 0.375 µM (active); in experiment [2] it was 1.7 µM (inactive); in [3], 0.305 µM (active); in [4] it was 0.395 µM (active); in [5], 0.267 µM (active); in [6] it was 0.48 µM (active). Besides, the concentration for 50% growth inhibition (GI50) in experiment [7] was 0.425 µM (active); in [8], 0.292 µM (active); in experiment [9], 0.649 µM (active); in experiment [10], 0.389 µM (active); in experiment [11], 0.282 µM (active); in [12], 3.66 µM (inactive). Moreover, the 50% growth inhibitory concentration (GI50) was 0.332 µM (active) in [13]; 0.284 µM (active) in experiment [14]; 0.197 µM (active) in experiment [15]; 0.4 µM (active) in [16]; 0.478 µM (active) in experiment [17]; 0.272 µM (active) in experiment [18]. In addition, the GI50 in experiment [19] was 0.377 µM (active); in experiment [20] it was 2.66 µM (inactive).

With `O=S1(=O)CCC2=CC(C(F)(F)F)=CC(C(F)(F)F)=CN21`, the GI50 in [1] was 2.96 µM (inactive); in experiment [2], 2.43 µM (inactive); in experiment [3], 0.0738 µM (active); in experiment [4], 0.542 µM (active); in experiment [5] it was 0.245 µM (active); in [6], 2.34 µM (inactive). Besides, the GI50 is 1.84 µM (inactive) in experiment [7]; 0.386 µM (active) in experiment [8]; 2.08 µM (inactive) in [9]; 1.19 µM (inactive) in experiment [10]; 1.12 µM (active) in experiment [11]; 2.11 µM (inactive) in experiment [12]. Also, the GI50 is 0.308 µM (active) in experiment [13]; 0.535 µM (active) in experiment [14]; 1.42 µM (inactive) in experiment [15]; 1.78 µM (inactive) in experiment [16]; 1.55 µM (inactive) in experiment [17]; 0.216 µM (active) in experiment [18]. The GI50 was 1.83 µM (inactive) in [19] and 2.14 µM (inactive) in experiment [20].

For the compound `Cc1ccc(SCC(OCn2cnc3c(N)ncnc32)[C@H](C)F)cc1` (some centres undefined), the GI50 in [1] is > 100 µM (inactive); in experiment [2], 40.9 µM (inactive); in [3], > 100 µM (inactive); in [4], > 100 µM (inactive); in [5], > 100 µM (inactive); in experiment [6], > 100 µM (inactive). Moreover, the GI50 in experiment [7], in experiment [8], in [9], in [10], in experiment [11] and in experiment [12] was > 100 µM (inactive) each time. In addition, the GI50 in [13], in [14], in experiment [15], in experiment [16], in [17] and in experiment [18] was > 100 µM (inactive) in each case. In addition, the GI50 in [19] and in [20] was > 100 µM (inactive) each time.

Consider `CN(C)c1cc2ccccc2oc1=O`, for which the GI50 in [1], in experiment [2], in experiment [3], in [4], in [5] and in experiment [6] was > 100 µM (inactive) throughout. In addition, the GI50 in experiment [7], in [8], in [9], in experiment [10], in [11] and in experiment [12] was > 100 µM (inactive) throughout. Moreover, the GI50 in experiment [13], in [14], in [15], in [16], in experiment [17] and in experiment [18] was > 100 µM (inactive) in each case. For the same compound, the GI50 in experiment [19] and in [20] was > 100 µM (inactive) throughout.

Regarding `Cn1cnc([N+](=O)[O-])c1[Se]c1ncnc2nc[nH]c12`, the GI50 was 27.5 µM (inactive) in experiment [1]; 14.6 µM (inactive) in experiment [2]; 9.51 µM (inactive) in [3]; 19.1 µM (inactive) in experiment [4]; 2.34 µM (inactive) in experiment [5]; 12 µM (inactive) in experiment [6]. The GI50 was 3.38 µM (inactive) in experiment [7]; 13.6 µM (inactive) in [8]; 10.5 µM (inactive) in experiment [9]; 17.3 µM (inactive) in experiment [10]; 2 µM (inactive) in experiment [11]; 11.4 µM (inactive) in experiment [12]. For the same compound, the GI50 is 8.79 µM (inactive) in experiment [13]; 5.01 µM (inactive) in experiment [14]; 13.4 µM (inactive) in experiment [15]; 3.79 µM (inactive) in experiment [16]; 11.7 µM (inactive) in experiment [17]; 2.04 µM (inactive) in experiment [18]. Further, the GI50 is 4.6 µM (inactive) in [19] and 2.04 µM (inactive) in experiment [20].

`Clc1cccc2[nH]ncc12`: the GI50 in [1] was > 100 µM (inactive); in experiment [2], 36.1 µM (inactive); in experiment [3], > 100 µM (inactive); in [4] it was > 100 µM (inactive); in [5] it was 66.7 µM (inactive); in experiment [6] it was > 100 µM (inactive). Besides, the GI50 in experiment [7] is > 100 µM (inactive); in experiment [8] it was 64.6 µM (inactive); in [9], > 100 µM (inactive); in [11], > 100 µM (inactive); in experiment [12] it was > 100 µM (inactive); in experiment [13] it was > 100 µM (inactive). Besides, the GI50 is > 100 µM (inactive) in experiment [14]; > 100 µM (inactive) in [15]; > 100 µM (inactive) in experiment [16]; > 100 µM (inactive) in experiment [17]; 30.6 µM (inactive) in [18]; > 100 µM (inactive) in experiment [19]. In addition, the GI50 in [20] was > 100 µM (inactive).

For the compound `C/C(=N\Nc1nc2ccccc2o1)c1cc2ccccc2cn1`, the GI50 in [1] is 0.054 µM (active); in [2] it was 0.173 µM (active); in experiment [3], < 0.01 µM (active); in experiment [4] it was 0.349 µM (active); in experiment [5], < 0.01 µM (active); in experiment [6] it was 0.14 µM (active). The 50% growth inhibitory concentration (GI50) in [7] is < 0.01 µM (active); in experiment [8] it was < 0.01 µM (active); in experiment [9], < 0.0208 µM (active); in [10], < 0.0187 µM (active); in experiment [11] it was < 0.01 µM (active); in experiment [12] it was 0.225 µM (active). In addition, the concentration for 50% growth inhibition (GI50) was < 0.01 µM (active) in [13]; < 0.0235 µM (active) in experiment [14]; < 0.0281 µM (active) in experiment [15]; 0.364 µM (active) in [16]; < 0.01 µM (active) in [17]; 0.112 µM (active) in [18]. Besides, the values for the concentration for 50% growth inhibition (GI50) in experiment [19] and in experiment [20] were < 0.0215 µM (active) and < 0.01 µM (active), respectively.

Values taken from ChEMBL document CHEMBL1201862, “PubChem BioAssay data set” (2004).
